In patent publication US20210198256A1, “COMPOUNDS FOR THE DEGRADATION OF BRD9 OR MTH1” (C4 Therapeutics, Inc., priority 2018, published 2021):

test system: SMARTCAR-MTH1-wt-HiBiT (Jurkat.7 cells); test: HiBit Lytic Assay (HiBit DC50, MTH1 degraders of Table 2); type: cell-based, human; conditions: Jurkat.7 SMARTCAR-MTH1-wt-HiBiT cells, compound treatment time 4 hr, 11-point half log dose response
Method in brief: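 Jurkat.7 cells expressing SMARTCAR-MTH1-wt-HiBiT were treated at 37° C with 11-point half-log dilutions (top final 1000 nM or 833 nM, duplicates, 0.1% DMSO). Remaining HiBiT-tagged protein was read by Nano-Glo HiBiT lytic luminescence, normalized to media-only and DMSO controls.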

DC50, < 100 nM:
CC(Nc1cccc2c1C(=O)N(C1CCC(=O)NC1=O)C2=O)c1cn(CCCCNC(=O)c2ccc(-c3cc4c(Nc5ccccc5)c(C(=O)NC5CC5)cnc4cc3F)cc2F)nn1 (stereo not shown) [Compound 433, N-cyclopropyl-6-(4-((4-(4-(1-((2-(2,6-dioxopiperidin-3-yl)-1,3-dioxoisoindolin-4-yl)amino)ethyl)-1H-1,2,3-triazol-1-yl)butyl)carbamoyl)-3-fluorophenyl)-7-fluoro-4-(phenylamino)quinoline-3-carboxamide]
CC(Nc1cccc2c1C(=O)N(C1CCC(=O)NC1=O)C2=O)c1cn(CCCCNC(=O)c2ccc(-c3cc4c(Nc5ccccc5)c(C(=O)NC5CC5)cnc4cc3C(F)(F)F)cc2F)nn1 (stereo not shown) [Compound 434, N-cyclopropyl-6-(4-((4-(4-(1-((2-(2,6-dioxopiperidin-3-yl)-1,3-dioxoisoindolin-4-yl)amino)ethyl)-1H-1,2,3-triazol-1-yl)butyl)carbamoyl)-3-fluorophenyl)-4-(phenylamino)-7-(trifluoromethyl)quinoline-3-carboxamide]
CNc1c(C(=O)NC2CC2)cnc2cc(C(F)(F)F)c(-c3ccc(C(=O)NCCCCn4cc(C(C)(C)Nc5cccc6c5C(=O)N(C5CCC(=O)NC5=O)C6=O)nn4)c(F)c3)cc12 (stereo not shown) [Compound 435, N-cyclopropyl-6-(4-((4-(4-(2-((2-(2,6-dioxopiperidin-3-yl)-1,3-dioxoisoindolin-4-yl)amino)propan-2-yl)-1H-1,2,3-triazol-1-yl)butyl)carbamoyl)-3-fluorophenyl)-4-(methylamino)-7-(trifluoromethyl)quinoline-3-carboxamide]
CNc1c(C(=O)NC2CC2)cnc2cc(F)c(-c3ccc(C(=O)NCCCCn4cc(C(C)(C)Nc5cccc6c5C(=O)N(C5CCC(=O)NC5=O)C6=O)nn4)c(F)c3)cc12 (stereo not shown) [Compound 436, N-cyclopropyl-6-(4-((4-(4-(2-((2-(2,6-dioxopiperidin-3-yl)-1,3-dioxoisoindolin-4-yl)amino)propan-2-yl)-1H-1,2,3-triazol-1-yl)butyl)carbamoyl)-3-fluorophenyl)-7-fluoro-4-(methylamino)quinoline-3-carboxamide]
CNc1c(C(=O)NC2CC2)cnc2cc(C(F)(F)F)c(-c3ccc(C(=O)NCCCCn4cc(C(C)(C)Nc5cccc6c5C(=O)N(C5CCC(=O)NC5=O)C6=O)nn4)nc3)cc12 (stereo not shown) [Compound 437, N-cyclopropyl-6-(6-((4-(4-(2-((2-(2,6-dioxopiperidin-3-yl)-1,3-dioxoisoindolin-4-yl)amino)propan-2-yl)-1H-1,2,3-triazol-1-yl)butyl)carbamoyl)pyridin-3-yl)-4-(methylamino)-7-(trifluoromethyl)quinoline-3-carboxamide]
O=C1CCC(N2Cc3c(CCCC(O)C(=O)NCCNC(=O)c4ccc(-c5cc6c(Nc7ccccc7)c(C(=O)NC7CC7)cnc6cc5F)cc4F)cccc3C2=O)C(=O)N1 (stereo not shown) [Compound 439, N-cyclopropyl-6-(4-((2-(5-(2-(2,6-dioxopiperidin-3-yl)-1-oxoisoindolin-4-yl)-2-hydroxypentanamido)ethyl)carbamoyl)-3-fluorophenyl)-7-fluoro-4-(phenylamino)quinoline-3-carboxamide]
O=C1CCC(N2C(=O)c3cccc(NCC(O)C(=O)NCCCNC(=O)c4ccc(-c5cc6c(Nc7ccccc7)c(C(=O)NC7CC7)cnc6cc5F)cc4F)c3C2=O)C(=O)N1 (stereo not shown) [Compound 440, N-cyclopropyl-6-(4-((3-(3-((2-(2,6-dioxopiperidin-3-yl)-1,3-dioxoisoindolin-4-yl)amino)-2-hydroxypropanamido)propyl)carbamoyl)-3-fluorophenyl)-7-fluoro-4-(phenylamino)quinoline-3-carboxamide]
CNC(=O)c1cnc2ccc(NCCCCCCCCCCNC(=O)CNc3cccc4c3CN(C3CCC(=O)NC3=O)C4=O)cc2c1Nc1ccccc1 (stereo not shown) [Compound 441, 6-((10-(2-((2-(2,6-dioxopiperidin-3-yl)-1-oxoisoindolin-4-yl)amino)acetamido)decyl)amino)-N-methyl-4-(phenylamino)quinoline-3-carboxamide]
CNC(=O)c1cnc2ccc(NCCCCCCCCCCNC(=O)C(C)Oc3cccc4c3C(=O)N(C3CCC(=O)NC3=O)C4=O)cc2c1Nc1ccccc1 (stereo not shown) [Compound 442, 6-((10-(2-((2-(2,6-dioxopiperidin-3-yl)-1,3-dioxoisoindolin-4-yl)oxy)propanamido)decyl)amino)-N-methyl-4-(phenylamino)quinoline-3-carboxamide]
CNC(=O)c1cnc2ccc(NCCCCCCCCCCNC(=O)[C@@H](C)Nc3cccc4c3C(=O)N(C3CCC(=O)NC3=O)C4=O)cc2c1Nc1ccccc1 (stereo partly drawn) [Compound 443, 6-((10-((2R)-2-((2-(2,6-dioxopiperidin-3-yl)-1,3-dioxoisoindolin-4-yl)amino)propanamido)decyl)amino)-N-methyl-4-(phenylamino)quinoline-3-carboxamide]
CNC(=O)c1cnc2ccc(NCCCCCCCCCCNC(=O)C(C)Nc3cccc4c3C(=O)N(C3CCC(=O)NC3=O)C4=O)cc2c1Nc1ccccc1 (stereo not shown) [Compound 444, 6-((10-(2-((2-(2,6-dioxopiperidin-3-yl)-1,3-dioxoisoindolin-4-yl)amino)propanamido)decyl)amino)-N-methyl-4-(phenylamino)quinoline-3-carboxamide]
CNC(=O)c1cnc2ccc(NCCCCCCCCCCNC(=O)[C@H](C)Nc3cccc4c3C(=O)N(C3CCC(=O)NC3=O)C4=O)cc2c1Nc1ccccc1 (stereo partly drawn) [Compound 445, 6-((10-((2S)-2((2-(2,6-dioxopiperidin-3-yl)-1,3-dioxoisoindolin-4-yl)amino)propanamido)decyl)amino)-N-methyl-4-(phenylamino)quinoline-3-carboxamide]
CNC(=O)c1cnc2ccc(C(=O)NCCCCCCCCCNC(=O)COc3cccc4c3C(=O)N(C3CCC(=O)NC3=O)C4=O)cc2c1Nc1ccccc1 (stereo not shown) [Compound 446, N6-(9-(2-((2-(2,6-dioxopiperidin-3-yl)-1,3-dioxoisoindolin-4-yl)oxy)acetamido)nonyl)-N3-methyl-4-(phenylamino)quinoline-3,6-dicarboxamide]
CNC(=O)c1cnc2ccc(NCCCCCCCCCCNC(=O)CN(C)c3cccc4c3C(=O)N(C3CCC(=O)NC3=O)C4=O)cc2c1Nc1ccccc1 (stereo not shown) [Compound 447, 6-((10-(2-((2-(2,6-dioxopiperidin-3-yl)-1,3-dioxoisoindolin-4-yl)(methyl)amino)acetamido)decyl)amino)-N-methyl-4-(phenylamino)quinoline-3-carboxamide]
CNC(=O)c1cnc2ccc(NCCCCCCCCCCNC(=O)COc3cccc4c3C(=O)N(C3CCC(=O)NC3=O)C4=O)cc2c1NCc1ccccc1 (stereo not shown) [Compound 448, 4-(benzylamino)-6-((10-(2-((2-(2,6-dioxopiperidin-3-yl)-1,3-dioxoisoindolin-4-yl)oxy)acetamido)decyl)amino)-N-methylquinoline-3-carboxamide]
CNC(=O)c1cnc2ccc(NCCCCCCCCCCNC(=O)COc3cccc4c3C(=O)N(C3CCC(=O)NC3=O)C4=O)cc2c1Nc1ccccc1 (stereo not shown) [Compound 449, 6-((10-(2-((2-(2,6-dioxopiperidin-3-yl)-1,3-dioxoisoindolin-4-yl)oxy)acetamido)decyl)amino)-N-methyl-4-(phenylamino)quinoline-3-carboxamide]
CNC(=O)c1cnc2ccc(C(=O)NCCCCCCCCCCNC(=O)COc3cccc4c3C(=O)N(C3CCC(=O)NC3=O)C4=O)cc2c1Nc1ccccc1 (stereo not shown) [Compound 450, N6-(10-(2-((2-(2,6-dioxopiperidin-3-yl)-1,3-dioxoisoindolin-4-yl)oxy)acetamido)decyl)-N3-methyl-4-(phenylamino)quinoline-3,6-dicarboxamide]
CNC(=O)c1cnc2ccc(NCCCCCCCCCCNC(=O)CNc3cccc4c3C(=O)N(C3CCC(=O)NC3=O)C4=O)cc2c1Nc1ccccc1 (stereo not shown) [Compound 451, 6-((10-(2-((2-(2,6-dioxopiperidin-3-yl)-1,3-dioxoisoindolin-4-yl)amino)acetamido)decyl)amino)-N-methyl-4-(phenylamino)quinoline-3-carboxamide]
CCNC(=O)c1cnc2ccc(NCCCCCCCCCCNC(=O)COc3cccc4c3C(=O)N(C3CCC(=O)NC3=O)C4=O)cc2c1Nc1ccccc1 (stereo not shown) [Compound 452, 6-((10-(2-((2-(2,6-dioxopiperidin-3-yl)-1,3-dioxoisoindolin-4-yl)oxy)acetamido)decyl)amino)-N-ethyl-4-(phenylamino)quinoline-3-carboxamide]
CNC(=O)c1cnc2ccc(C(=O)NCCCCCCCCNC(=O)COc3cccc4c3C(=O)N(C3CCC(=O)NC3=O)C4=O)cc2c1Nc1ccccc1 (stereo not shown) [Compound 453, N6-(8-(2-((2-(2,6-dioxopiperidin-3-yl)-1,3-dioxoisoindolin-4-yl)oxy)acetamido)octyl)-N3-methyl-4-(phenylamino)quinoline-3,6-dicarboxamide]
CNC(=O)c1cnc2cc(OC)c(NCCCCCCCCCCNC(=O)COc3cccc4c3C(=O)N(C3CCC(=O)NC3=O)C4=O)cc2c1Nc1ccccc1 (stereo not shown) [Compound 454, 6-((10-(2-((2-(2,6-dioxopiperidin-3-yl)-1,3-dioxoisoindolin-4-yl)oxy)acetamido)decyl)amino)-7-methoxy-N-methyl-4-(phenylamino)quinoline-3-carboxamide]
CNC(=O)c1cnc2ccc(C(=O)NCCCCCCCCCCCCNC(=O)COc3cccc4c3C(=O)N(C3CCC(=O)NC3=O)C4=O)cc2c1Nc1ccccc1 (stereo not shown) [Compound 455, N6-(12-(2-((2-(2,6-dioxopiperidin-3-yl)-1,3-dioxoisoindolin-4-yl)oxy)acetamido)dodecyl)-N3-methyl-4-(phenylamino)quinoline-3,6-dicarboxamide]
